IC50 data for four molecules are collected here from patent publication US8410114B2, “2-pyrazinone derivatives for the treatment of disease or condition in which inhibition of neutrophil elastase activity is beneficial” (AstraZeneca AB, priority 2006, dated 2013).

Each structure is given as a SMILES string.

This test has as its target T1, Human Neutrophil Elastase (HNE) (Homo sapiens, UniProt P08246).
T1 construct: Human Neutrophil Elastase (HNE) purified from serum (Calbiochem art. 324681); purchased Calbiochem 324681; host or cells: purified from human material ('serum' in the source)
T1 sequence (P08246 30-247 limits assumed): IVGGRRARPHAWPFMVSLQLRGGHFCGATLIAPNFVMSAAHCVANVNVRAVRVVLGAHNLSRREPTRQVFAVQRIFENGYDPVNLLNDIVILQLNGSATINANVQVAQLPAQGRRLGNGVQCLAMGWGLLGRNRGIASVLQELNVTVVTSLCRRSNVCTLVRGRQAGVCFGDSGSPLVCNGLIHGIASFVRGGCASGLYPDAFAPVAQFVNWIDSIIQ
In words: Human Neutrophil Elastase Quenched-FRET Assay. In kind it is biochemical. The following applies: HNE 1.7 nM, substrate MeOSuc-AAPV-AMC 100 μM, 15 min preincubation, 30 min incubation at room temperature; read-out: Inhibition of Human Neutrophil Elastase IC50. On the procedure: Human Neutrophil Elastase Quenched-FRET Assay
The assay uses Human Neutrophil Elastase (HNE) purified from serum (Calbiochem art. 324681; Ref. Baugh, R. J. et al., 1976, Biochemistry. 15, 836-841). HNE was stored in 50 mM sodium acetate (NaOAc), 200 mM sodium chloride (NaCl), pH 5.5 with added 30% glycerol at −20° C. The protease substrate used was Elastase Substrate V Fluorogenic, MeOSuc-AAPV-AMC (Calbiochem art. 324740; Ref. Castillo, M. J. et al., 1979, Anal. Biochem. 99, 53-64). The substrate was stored in dimethyl sulphoxide (DMSO) at −20° C. The assay additions were as follows: Test compounds and controls were added to black 96-well flat-bottom plates (Greiner 655076), 1 μL in 100% DMSO, followed by 30 μL HNE in assay buffer with 0.01% Triton (trade mark) X-100 detergent. The assay buffer constitution was: 100 mM Tris(hydroxymethyl)aminomethane (TRIS) (pH 7.5) and 500 mM NaCl. The enzyme and the compounds were incubated at room temperature for 15 minutes. Then 30 μl substrate in assay buffer was added. The assay was incubated for 30 minutes at room temperature. The concentrations of HNE enzyme and substrate during the incubation were 1.7 nM and 100 μM, respectively. The assay was then stopped by adding 60 μl stop solution (140 mM acetic acid, 200 mM sodium monochloroacetate, 60 mM sodium acetate, pH 4.3). Fluorescence was measured on a Wallac 1420 Victor 2 instrument at settings: Excitation 380 nm, Emission 460 nm. IC50 values were determined using Xlfit curve fitting using model 205.
On to `CNC(=O)c1nc(-c2ccnn2-c2ccc(C#N)cc2)c(C)n(-c2cccc(C(F)(F)F)c2)c1=O` [Example 1, 6-[2-(4-Cyano-phenyl)-2H-pyrazol-3-yl]-5-methyl-3-oxo-4-(3-trifluoromethyl-phenyl)-3,4-dihydro-pyrazine-2-carboxylic acid methylamide], for which the IC50 stood at 0.33 nM.
The same measure for `Cc1c(-c2ccnn2-c2ccc(C#N)cc2)nc(C(=O)NCc2ccc(S(C)(=O)=O)cn2)c(=O)n1-c1cccc(C(F)(F)F)c1` [Example 2, 6-[2-(4-Cyano-phenyl)-2H-pyrazol-3-yl]-5-methyl-3-oxo-4-(3-trifluoromethyl-phenyl)-3,4-dihydro-pyrazine-2-carboxylic acid (5-methanesulfonyl-pyridin-2-ylmethyl)-amide]: 0.32 nM; for `Cc1c(-c2ccnn2-c2ccc(C#N)nc2)nc(C(=O)NC2CC2)c(=O)n1-c1cccc(C(F)(F)F)c1` [Example 12, 6-[1-(6-Cyanopyridin-3-yl)-1H-pyrazol-5-yl]-N-cyclopropyl-5-methyl-3-oxo-4-[3-(trifluoromethyl)phenyl]-3,4-dihydropyrazine-2-carboxamide]: 1 nM; for `Cc1c(-c2ccnn2-c2ccc(C#N)cc2)nc(C(=O)NCC(=O)O)c(=O)n1-c1cccc(C(F)(F)F)c1` [Example 16, 2-[[6-[2-(4-Cyanophenyl)pyrazol-3-yl]-5-methyl-3-oxo-4-[3-(trifluoromethyl)phenyl]-3,4-dihydro-pyrazine-2-carbonyl]amino]acetic acid]: 0.61 nM.
